Read-outs that look alike come from different tables or passages of the source.

The target in data set [1] is HIV-1 RT (Human immunodeficiency virus type 1 group M subtype B, UniProt P04585). Kind of data set: In vitro inhibition of HIV-1 RT (kinetic analysis). It is filed as biochemical. The conditions noted are these: for IC50: read-out: ID50 (the source's name).
The subject of data set [2] is SUP T1 cells.
Data set [3] concerns the target HIV-1 gp120 interaction with CD4 (Human immunodeficiency virus type 1 group M subtype B, UniProt P04578).
In data set [4] the test system is HIV-1 strain DV. Kind of data set: HIV-1 induced syncytia formation assay in SUP T1 cells. The format is cell-based.
The subject of data set [5] is HIV-1DV. Kind of data set: HIV-1 p24 production in SUP T1 cells. It is filed as cell-based.
Data set [6] deals with SUP T1 cells. Kind of data set: Cytotoxicity assay, CellTiter 96 (MTS), SUP T1 cells. The conditions noted are these: read-out: TC50 (concentration reducing cell proliferation by 50%); SUP T1, dye (MTS) metabolism assay.
Data set [7] relates to HIV-1RF. Kind of data set: HeLa-CD4-LTR-β-galactosidase cell virus infection assay. To be noted: Human immunodeficiency virus 1; HIV-1RF; read-out: IC50 β-galactosidase production, virus infection assay. It is filed as cell-based.
Data set [8] deals with HIV-1SKI. Kind of data set: Single cycle analysis of HIV-1 cDNA, CEM-SS cells. The conditions noted are these: 10- to 100-fold over IC50. It is filed as cell-based.
The subject of data set [9] is CD4- and gp120-mediated cell fusion. Kind of data set: cells. It is filed as cell-based. The conditions noted are these: HL2/3, read-out: IC50 CD4- and gp120-mediated cell fusion.
The subject of data set [10] is HIV-1 strains (SKI, RF, DV, IIIB, ADP/141). Kind of data set: microbe, parasite or virus in culture. It is filed as cell-based. The conditions noted are these: Human immunodeficiency virus 1, IIIB, CEM-SS.
The subject of data set [11] is HIV-1IIIB. Kind of data set: Time of drug addition study, MT-4 cells (p24). To be noted: 100-fold IC50, MOI 1, p24 at 29 hour. It is filed as cell-based.
Where [12] appears, read: read-out: ID50 [CD4], oligo binding to immobilized CD4.
The mark [13] stands for this setting: read-out: ID50 [gp 120], oligo preincubated with soluble gp120.
Setting [14] is: SUP T1, HIV-1 DV, read-out: IC50 in anti-HIV-1 syncytia formation assay.

Take “5′-gtggtgggtgggtgggtggtgggtggtggttgtgggtgggtggtg-3′ [I100-07]”: the Ki in data set [1] was found to be 0.137 µM. The IC50 stood at 2.5 µM in [1]; 4.25 µM in data set [3] (setting [12]); 0.8 µM in [3] (setting [13]); 0.25 µM in data set [4] (SUP T1, HIV-1DV, four days, read-out: IC50 Syn (syncytium inhibition)); 0.25 µM in [4] (setting [14]); 0.55 µM in data set [5] (SUP T1, HIV-1DV, four days). Moreover, in data set [2], the CC50 was more than 50 µM. Also, the “inhibition of detection of immobilized gp120 by HRP-α-gp120 antibody” value in data set [3] (control experiment) was “did not inhibit”. Besides, the “Percent p24 relative to infected untreated control, Day 7” value in [5] (2.5 uM, drug removed day 4) came to 15.9%. Besides, the “Percent p24 relative to infected untreated control, Day 11” value in [5] (2.5 uM, drug removed day 4) is recorded as 8.6%. Moreover, the “Percent p24 relative to infected untreated control, Day 4” value in [5] (2.5 uM, medium replaced day 4) is recorded as 6.0%.

The compound “5′-gttgggggttgttggtggggtggtgg-3′ [I100-00] (DNA GTTGGGGGTTGTTGGTGGGGTGGTGG; phosphorodiamidate backbone, further chemistry not given here) [26 mer PD]” showed a Ki in [1] of 0.37 µM. Moreover, the IC50 in data set [1] was found to be 5 µM; in data set [3] (setting [12]) it was 18 µM; in data set [3] (setting [13]) it was 3.5 µM; in data set [4] (setting [14]), 3.75 µM. The CC50 in [6] turned out to be 37 µM.

For the compound `COc1cc(-c2ccc(/N=N/c3ccc4c(S(=O)(=O)O)cc(S(=O)(=O)O)c(N)c4c3O)c(OC)c2)ccc1/N=N/c1ccc2c(S(=O)(=O)O)cc(S(=O)(=O)O)c(N)c2c1O` [CSB, Chicago sky blue], the IC50 in data set [7] turned out to be 0.26 µM; in data set [9], 0.8 µM; in [10] (read-out: Antiviral Assay IC50 IIIB, HIV-1 IIIB, CEM-SS or MT4) it was 0.6 µM; in [10] (read-out: Antiviral Assay IC50 RF, HIV-1 RF, CEM-SS or MT4), 1.7 µM; in data set [10] (read-out: Antiviral Assay IC50 SKI, HIV-1 SKI, CEM-SS or MT4) it was 1.6 µM. Moreover, the “viral cDNA 12 hours post-infection, drug added at time of infection” value in [8] is on record as “no detectable viral DNA”. Besides, in data set [11], the “delay of drug addition post-infection at which inhibitory effect is lost” value is reported as “one hour post-virus infection”.

Source of the values: US6355785B1, “Guanosine-rich oligonucleotide integrase inhibitors” (Aronex Pharmaceuticals, Inc., priority 1993, dated 2002).
